Data published in paper PMC6222706, “Evaluation of the Antioxidant and Neuroprotectant Activities of New Asymmetrical 1,3-Diketones” (Molecules : A Journal of Synthetic Chemistry and Natural …, 2018).
Converted amounts (≈) assume the structure as drawn.

Assays:
[1] = FRAP (Ferric Reducing Antioxidant Power) assay; format: biochemical; details: for FRAP-TEAC100: Trolox Equivalent Antioxidant Capacity vs 100 µM solution of the substance, from FRAP assay; for FRAP Assay (%) at 100 µM / FRAP Assay (%) at 200 µM: 30 min, 593 nm
Method: The assay was carried out according to the method of Benzie et al. with slight modifications, in a 96-well microplate. FRAP reagent was prepared by mixing 10 mL of 300 mM acetate buffer with 1 mL of 10 mM 2,4,6-tripyridyl-S-triazine (TPTZ) in HCl 40 mM and 1mL of FeCl3·6H2O 20 mM. Firstly, 190 µL of the FRAP reagent were added to all wells of the 96-well plate, followed by the addition to the well of 10 µL of the test compounds dissolved in Ethanol to reach the final concentrations assayed (0, 5, 10, 20, 50, 100, 150, 200 µM). After 30 min incubation in the dark, the absorbance was read at 593 nm. Trolox was used as assay control. Three different assays were carried out by quadruplicate for each compound.

[2] = Kinetic solubility by UV spectrometry in 10 mM PBS; format: physicochemical; details: 10 mM phosphate buffered saline, aqueous buffer, kinetic from dmso stock
Method: Among the most important physicochemical parameters in drug-discovery, solubility and chemical stability in aqueous media are the determinants for non-toxic and brain-permeable drug-like compounds with good bioavailability. So, compounds with good aqueous solubility are the best candidates for drug-discovery progression. […] The assays were performed at room temperature, in 10 mM Phosphate Buffered Saline (PBS) from compound stocks in DMSO at 20 mM concentration.
A modified protocol was used from that described by Hoelke et al. for the determination of the kinetic solubility from DMSO compound solutions. A compound calibration curve (compound concentration vs. UV absorption) was prepared on a 48 well plate for each compound with concentrations in the range of 10 µM to […]. Each compound dilution was carried out by pipetting defined volumes of a 20 mM stock compound solution in DMSO into the wells and adding PBS 10 mM to reach a final volume of 500 µL/well. The final amount of DMSO per well was 2%. For the lower compound concentrations, an additional volume of DMSO was added into each well to reach the 2% of DMSO. Then, 200 µL of each dilution was transferred to a new 96 well plate for the measurement of the UV-spectra. One well in each row was left without compound as a blank and its UV absorbance was used as an offset correction. The experiments were carried out by duplicate.
(§1) In parallel compound saturation solutions were obtained and filtered from 20 mM compound stock in DMSO. So, 10 µL of 20 mM stock solution were dispensed to 190 µL of PBS 10 mM. The solutions were mixed, shaken in a microplate shaker for two hours, and then 160 µL of each solution were filtered and transferred to a new well plate for UV absorption measure. The compound stability in PBS 10 mM was determined at 24, 48 and 72 h with solutions prepared as those for the compound calibration curve.
Measurement of the UV-spectra was performed using a Varioskan microplate reader and spectra were taken in the range of 270–600 nm. Spectral bandwidth was set to 5 nm and the data pint interval was 10 nm. […]

[3] = Chemical stability in 10 mM PBS; format: physicochemical; details: 6b, 7b at 400 µM, curcumin at 50 µM
Method: It is also important to know compound integrity at those concentrations used in biological assays, and for that, the chemical stability was determined in 10 mM PBS after 6 h, 24 h and 48 h.
as §1

SH-SY5Y cells [4] = experiment: Intracellular ROS levels (DCFH2-DA) in SH-SY5Y cells under H2O2; format: cell-based, human
Method: Oxidative stress increases ROS levels, which may cause cell damage and death. Therefore, ROS production caused by H2O2 was evaluated in cells pretreated with or without derivatives 6b and 7b. In these studies, DFCH-DA method was used to measure by fluorescence the ROS intracellular levels, under two different compound treatment regimens. […] From both experiments, it could be concluded that 6b and 7b reduce intracellular ROS, and that longer treatment period seems to be needed to achieve a better ROS reduction.
Intracellular ROS levels were determined using dichlorofluorescein diacetate (DCFH2-DA) according to Wang et al.. DCFH2-DA is cleaved by intracellular esterases and oxidized by ROS to form the fluorescent compound DCF, which measure represents the ROS level. So, 3 × 10^3 SH-SY5Y cells were seeded in 96 well plates and after 24 h, treated with the test compound for an additional 24 h. […] After the incubation period, cells were washed twice with Hanks buffer and loaded with 20 µM DCFH2-DA (in FBS-free culture medium) for 40 min in dark at 37 °C in a CO2 incubator. At the end of the dye incubation period, they were washed twice with Hanks buffer to remove the extracellular DCFH2-DA. Fluorescence was measured with a Varioskan microplate reader at 485 nm excitation and 535 nm emission wavelength. Results are expressed as the percentage of fluorescent increase compared with that of the control. All the experiments were performed at least three times by quadruplicate for each compound concentration.

SH-SY5Y cells [5] = experiment: Mitochondrial membrane potential (JC-1, microplate reader) in SH-SY5Y cells under H2O2; format: cell-based, human; details: SH-SY5Y, compound at different concentrations for 24 h, then 200 µM H2O2 for 24 h, JC-1
Method: To know whether β-diketones 6b and 7b will protect the mitochondrial membrane from depolarization under oxidative stress conditions, MMP experiments were carried out with the cationic dye JC-1 (5,5′,6,6′-tetrachloro-1,1′,3,3′-tetraethylbenzimi-dazolylcarbocyanine iodide). JC-1 enters selectively into mitochondria and reversibly change color from red to green as the membrane potential decrease. In healthy cells, JC-1 forms red fluorescent J-aggregates while in apoptotic cells with low MMP, JC-1 remains as monomers with green fluorescence. The ratio of J-aggregates to J-monomers is an indication of healthy non-apoptotic cells.
The fluorescent dye 5,5′,6,6′-tetrachloro-1,1′,3,3′-tetraethylbenzimidazolylcarbocyanine iodide (JC-1) was used for measuring MMP [111]. A decrease in fluorescence intensity represents mitochondrial membrane depolarization. For fluorescence ratio detection under oxidative stress conditions, 96 well plates were seeded with 3 × 10^3 SH-SY5Y cells and after 24 h incubation they were treated with test compound and left out for 24 h. Then, cells were exposed to different H2O2 concentrations for 24 h. After the incubation period, cells were washed twice with Hanks buffer and then stained with 5 µM JC-1 in culture media in dark, in a CO2 incubator at 37 °C for 20 min. At the end of the dye incubation period, cells were washed three times with Hanks buffer and 200 µL of fresh buffer was added. Cells were analyzed with a Varioskan microplate reader. J-aggregates red fluorescence intensity was measured at 535 nm excitation and 595 nm emission wavelength, while excitation at 485 nm and emission 535 nm wavelength was used for J-monomers green fluorescence. Results were expressed as the ratio of fluorescence intensity of J-aggregates to J-monomers. […] JC-1 aggregates show red fluorescence (peak emission at 590 nm) measured in the FL2 channel. Thus, healthy non-apoptotic cells are detected in both FL1 and FL2 channels, while cells with disrupted mitochondrial function show fluorescence in FL1 channel but reduced FL2 intensity.

[6] = 6 h compound treatment followed by 2 h 500 µM H2O2
[7] = 24 h compound treatment prior to 400 µM H2O2 for 4 h

| SMILES | FRAP-TEAC100 [1] | FRAP Assay (%) at 100 µM [1] [%] | FRAP Assay (%) at 200 µM [1] [%] | solubility at 2 h [2] [µg/mL] | Remaining Compound (%) 0 h [3] [%] | Remaining Compound (%) 6 h [3] [%] | Remaining Compound (%) 24 h [3] [%] | Remaining Compound (%) 48 h [3] [%] | Intracellular ROS level (SH-SY5Y cells [4]; [6]) | Intracellular ROS level (SH-SY5Y cells [4]; [7]) | MMP recovery (SH-SY5Y cells [5]) |
| --- | --- | --- | --- | --- | --- | --- | --- | --- | --- | --- | --- |
| O=C(/C=C(O)/C=C/c1cc(F)c(O)cc1F)C(F)(F)F [Compound 6b, (3Z,5E)-6-(2,5-difluoro-4-hydroxyphenyl)-1,1,1-trifluoro-4-hydroxyhexa-3,5-dien-2-one] | 0.15 | 6.7 | 11.3 | 281 ± 9 (≈ 955 µM) | 100 | 96.1 ± 0.5 | 92.2 ± 1.6 | 90.4 ± 3.0 | significant ROS level decrease | significant ROS level reduction | 18–25% |
| O=C(/C=C(O)/C=C/c1ccc(O)c(F)c1F)C(F)(F)F [Compound 7b, (3Z,5E)-6-(2,3-Difluoro-4-hydroxyphenyl)-1,1,1-trifluoro-4-hydroxyhexa-3,5-dien-2-one] | 0.16 | 8.8 | 15.3 | 298 ± 7 (≈ 1010 µM) | 100 | 95.7 ± 1.0 | 90.9 ± 1.2 | 87.8 ± 2.3 | significant ROS level decrease | significant ROS level reduction | 18–25% |
